For one data set, the system named is patients. The note with it: cited from earlier work.
Data set [1] deals with health men. In words: Safety Test 2: vital signs in supine position, Silodosin combination. As to conditions: for Diastolic blood pressure mean: the values are: Diastolic blood pressure mean. Type of data set: in vivo, human. The method, then: (§1) The safety evaluation was performed by observing vital signs (diastolic blood pressure, pulse rate, body temperature), clinical laboratory testing, electrocardiogram, adverse reactions such as subjective symptom and objective symptom.

A short description of data set [2]: Safety Test 2: pharmacokinetic parameters. Type of data set: in vivo. As to conditions: male, human, plasma. As for the experimental part:
The safety evaluation was performed by observing vital signs (diastolic blood pressure, pulse rate, body temperature), clinical laboratory testing, electrocardiogram, adverse reactions such as subjective symptom and objective symptom. In addition, the effect of drug-drug interaction on pharmacokinetics of the pyrazolopyrimidinone was observed.

Data set [3] concerns smooth muscle of rat prostate. In words: Relaxation of contracted rat prostatic tissue in organ bath, formula (I) and Silodosin. The class given is cell-based, Sprague-Dawley rat. The method, then:
Male Sprague-Dawley rat with 300-400 g of body weight was sacrificed and the prostate was extracted and transferred to Krebs-Henseleit buffer kept cold. The dorsolateral lobes of prostatic tissue were transected to separate prostatic tissue gland with size of 2×10 mm (4 tissues per a rat). The separated tissues were transferred to organ bath where 95% O2, and 5% CO2 were emitted and Krebs-Henseleit buffer (37° C.) was contained, both ends of the tissue gland were fixed to the bath floor and force transducer connected to polygraph(Grass Instruments) respectively.
Each tissue was stabilized for 1 hour, and then treated by 10^−5M carbachol to induce the contraction of prostatic tissue.
In Table 3, data were obtained by using four (4) tissue glands were used for each concentration of the drug, and the numerical value is mean ± standard error of the percentage of contracting degree (inverse proportion to relaxation degree).

The test system of data set [4] is smooth muscle of rat prostate. In words: Relaxation of phenylephrine-contracted rat prostatic tissue in organ bath, formula (I) and Tamsulosin. The class given is cell-based, Sprague-Dawley rat. The method, then: Male Sprague-Dawley rat with 300-400 g of body weight was sacrificed and the prostate was extracted and transferred to Krebs-Henseleit buffer kept cold. The dorsolateral lobes of prostatic tissue were transected to separate prostatic tissue gland with size of 2×10 mm (4 tissues per a rat). The separated tissues were transferred to organ bath where 95% O2, and 5% CO2 were emitted and Krebs-Henseleit buffer (37° C.) was contained, both ends of the tissue gland were fixed to the bath floor and force transducer connected to polygraph(Grass Instruments) respectively. Each tissue was stabilized under 0.2 standard tension for 1 hour, and then treated by 1 μM of phenylephrine to induce the contraction of prostatic tissue. […] In Table 1, data were obtained by using four (4) tissue glands were used for each concentration of the drug, and the numerical value is mean ±standard error of the percentage of contracting degree (inverse proportion to percentage of relaxation degree).

Data set [5] has as its system health men. In words: Safety Test 1: vital signs in supine position, Tamsulosin combination. Type of data set: in vivo, human. As to conditions: for Diastolic blood pressure mean: the values are: Diastolic blood pressure mean. The method, then: as §1
The next data set addresses PDE 5 (Homo sapiens, UniProt O76074). In words: PDE 5 inhibition. The class given is biochemical.
Data set [6] in a line: Safety Test 1: pharmacokinetics of the pyrazolopyrimidinone. Type of data set: in vivo. As to conditions: male, human, plasma. As for the experimental part: The safety evaluation was performed by observing vital signs (diastolic blood pressure, pulse rate, body temperature), clinical laboratory testing, electrocardiogram, adverse reactions such as subjective symptom and objective symptom. In addition, the effect of drug interaction on pharmacokinetics of the pyrazolopyrimidinone was observed.

A short description of data set [7]: Physicochemical properties (pKa, solubility).
Data set [8] can be described thus: Pharmacokinetic characteristics in the body. The class given is in vivo.
In data set [9] the test system is smooth muscle of rat bladder. In words: Relaxation of carbachol-contracted rat bladder tissue in organ bath. Type of data set: cell-based, Sprague-Dawley rat. The note with it: for percentage of relaxation degree: L-NAME or Tamsulosin 10^−4M where combined.
[10] abbreviates: Group B: placebo + the pyrazolopyrimidinone.
[11] abbreviates: Group D: administered with Tamsulosin.

Structures are written as SMILES. Where two headings read alike, the source gives them in different places.

Turning to `CCCc1nc(C)c2c(=O)[nH]c(-c3cc(S(=O)(=O)N4CCN(CC)CC4)ccc3OCC)nn12` [Vardenafil], in the data set with patients (combination with α-adrenergic receptor antagonist), the “blood pressure effect in combination of α-adrenergic receptor antagonist” value was “some patients shows low blood pressure”.
As for `C[C@H](Cc1cc2c(c(C(N)=O)c1)N(CCCO)CC2)NCCOc1ccccc1OCC(F)(F)F` [Silodosin, reference compound], the Pulse rate mean in the data set with health men [1] was 64.2. Besides, the Diastolic blood pressure mean in the data set with health men [1] was 62.3 mmHg. In addition, the AUC(0-inf) in data set [2] (AUCinf Silodosin, Group B: placebo + Silodosin) was 0.11 ± 0.0176 µg·h/mL; in data set [2] (AUCinf Silodosin, Group C: Silodosin + the pyrazolopyrimidinone), 0.133 ± 0.0252 µg·h/mL. For the same molecule, the Cmax (commonly the maximum level reached in the sampled fluid or tissue) in data set [2] (Cmax Silodosin, Group B: placebo + Silodosin) is 0.0311 ± 0.0072 µg/mL; in data set [2] (Cmax Silodosin, Group C: Silodosin + the pyrazolopyrimidinone), 0.0352 ± 0.0078 µg/mL. The Tmax (commonly the time from dosing to the highest level) came to 1.4 h in [2] (Tmax (h) Silodosin, Group B: placebo + Silodosin) and 1.7 h in data set [2] (Tmax (h) Silodosin, Group C: Silodosin + the pyrazolopyrimidinone). In addition, the “Contraction degree (%)” value in data set [3] (Compound of formula (I) 0 μM, Silodosin 0.1 nM) is on record as 90.8 ± 1.4%; in [3] (Compound of formula (I) 0 μM, Silodosin 1 nM) it was 82.0 ± 1.7%; in [3] (Compound of formula (I) 0 μM, Silodosin 10 nM) it was 46.9 ± 1.6%.
Take `CCOc1ccccc1OCCN[C@H](C)Cc1ccc(OC)c(S(N)(=O)=O)c1` [Tamsulosin, (R)-5-(2-(2-(2-ethoxyphenoxy)ethylamino)propyl)-2-methoxy benzensulfonamide, reference compound]: the “Contraction degree (%)” value in data set [4] (Compound of formula (I) 0 μM, Tamsulosin 0.25 nM) was found to be 90.8 ± 1.4%; in [4] (Compound of formula (I) 0 μM, Tamsulosin 1 nM) it was 78.8 ± 2.0%; in data set [4] (Compound of formula (I) 0 μM, Tamsulosin 4 nM), 43.6 ± 4.2%. In addition, the “side effect in combination of PDE 5 inhibitors” value in the data set on patients (administered in combination of PDE 5 inhibitors) is “orthostatic hypotension”. Moreover, the Pulse rate mean in the data set on health men [5] was 57.7. The Diastolic blood pressure mean in the data set on health men [5] came out at 63 mmHg.
As for `CCCOc1ccc(S(=O)(=O)NCCC2CCCN2C)cc1-c1nc2c(CCC)nn(C)c2c(=O)[nH]1` (stereo not drawn) [Compound of formula (I), 5-[2-propyloxy-5-(1-methyl-2-pyrolidinylethylamidosulphonyl)phenyl]-1-methyl-propyl-1,6-dihydro-7H-pyrazolo (4,3-d)pyrimidin-7-one], the “Contraction degree (%)” value in data set [4] (Compound of formula (I) 3 μM, Tamsulosin 0 nM, 1 μM phenylephrine) was found to be 92.6 ± 2.2%; in data set [4] (Compound of formula (I) 10 μM, Tamsulosin 0 nM), 77.1 ± 2.5%; in data set [4] (Compound of formula (I) 30 μM, Tamsulosin 0 nM), 62.2 ± 3.1%; in data set [3] (Compound of formula (I) 3 μM, Silodosin 0 nM) it was 92.6 ± 2.2%; in data set [3] (Compound of formula (I) 10 μM, Silodosin 0 nM), 77.1 ± 2.5%; in [3] (Compound of formula (I) 30 μM, Silodosin 0 nM), 62.2 ± 3.1%. Further, the Pulse rate mean in the data set on health men [1] came to 61.4; with health men [5], 60.2. Besides, the Diastolic blood pressure mean is 62.2 mmHg with health men [1] and 61.6 mmHg in the data set with health men [5]. Also, on PDE 5, the “inhibition of PDE 5” value is reported as “inhibits PDE 5 strongly”. Moreover, the AUC(0-inf) in data set [2] (Group A: placebo + the pyrazolopyrimidinone, read-out: AUCinf Ud) was 4.82 ± 1.32 µg·h/mL; in data set [2] (Group C: Silodosin + the pyrazolopyrimidinone, read-out: AUCinf Ud), 4.94 ± 1.26 µg·h/mL; in data set [6] (setting [10]), 4.73 ± 1.26 µg·h/mL; in [6] (setting [11]) it was 4.91 ± 1.26 µg·h/mL. Besides, the Cmax in [2] (Group A: placebo + the pyrazolopyrimidinone, read-out: Cmax Ud) is 0.627 ± 0.159 µg/mL; in [2] (Group C: Silodosin + the pyrazolopyrimidinone, read-out: Cmax Ud), 0.659 ± 0.196 µg/mL; in data set [6] (setting [10]) it was 0.617 ± 0.169 µg/mL; in [6] (setting [11]), 0.624 ± 0.2 µg/mL. Besides, the Tmax in data set [2] (Group A: placebo + the pyrazolopyrimidinone, read-out: Tmax (h) Ud) worked out at 1.5 h; in data set [2] (Group C: Silodosin + the pyrazolopyrimidinone, read-out: Tmax (h) Ud), 1.3 h; in data set [6] (setting [10]) it was 1.5 h; in [6] (setting [11]), 1.1 h. The half-life – broadly, the time needed for the level to fall by half in the phase considered – in data set [6] (setting [10]) is 9.7 ± 1.7 h; in data set [6] (setting [11]) it was 9.9 ± 2.3 h. Also, the pKa1 entry in [7] was “about 6.5”. For the same molecule, the pKa2 result in data set [7] is listed as “about 12.5”. For the same molecule, the solubility result in data set [7] is reported as “improved solubility”. Moreover, the “solubility to acetic acid, methanol or chloroform” value in [7] (acetic acid, methanol or chloroform) is “high solubility”. Also, the solubility to water result in data set [7] (water) is on record as “low solubility”. The “half life in the body compared with the sildenafil-type citrate and vardenafil-type hydrochloride named” value in [8] (in the body) is listed as “three times longer half life”. The absorption result in [8] (in vivo) is given as “rapid absorption”. For the same molecule, the bioavailability entry in data set [8] (in vivo) is “high bioavailability”. Besides, the “distribution volume in the body” value in data set [8] (in vivo) is “high distribution volume”. In addition, the “percentage of relaxation degree” value is listed as 17.4 ± 3.7% in data set [9] (Compound of formula (I) 10^−4M); “about 17.4%” in data set [9] (Compound of formula (I) 10^−4M, listed as pyrazolopyrimidinone of formula (I)); 7.2 ± 1.6% in data set [9] (Compound of formula (I) 10^−5M); 2.0 ± 1.1% in [9] (Compound of formula (I) 10^−6M); 0.0 ± 0.0% in data set [9] (Compound of formula (I) 10^−7M); 0.0 ± 0.0% in data set [9] (Compound of formula (I) 10^−8M, 10^−5M carbachol). For the same molecule, in data set [9] (administered alone), the “concentration at which the relaxation effect began to be represented” value was 10^−6 M.
Take `COc1cc2nc(N3CCN(C(=O)C4CCCO4)CC3)nc(N)c2cc1OC` (stereo not drawn) [Terazocin]: the “side effect in combination of PDE 5 inhibitors” value in the data set with patients (human, in vivo) is “orthostatic hypotension”.

The record behind these values is patent US20100210668A1, “COMPOSITION AND METHOD FOR TREATMENT OR PREVENTION OF BENIGN PROSTATIC HYPERPLASIA AND LOWER URINARY TRACT SYMPTOMS” (DONG-A PHARM. CO., LTD., priority 2007, published 2010).
